Measurements as given in ChEMBL document CHEMBL5584261, “N-methylmorpholine incorporation into the structure of biphenyl leads to the bioactive inhibitor of PD-1/PD-L1 interaction” (Bioorg Med Chem Lett, 2024).
Activity calls are given as the source filed them. The rule behind the calls is not given here.

Key:
[1] = molecular target: T1, Programmed cell death protein 1/Programmed cell death 1 ligand 1 (Homo sapiens, UniProt Q9NZQ7); experiment: Inhibition of human PD-1/PD-L1 interaction incubated for 1 hr by HTRF assay; format: protein-complex assay
[2] = molecular target: T1, Programmed cell death protein 1/Programmed cell death 1 ligand 1; experiment: (§1) Inhibition of PD-1/PD-L1 interaction in human Jurkat T cells co-cultured with CHO/TCRAct/PDL1 cells assessed as restoration of T cell activation measured for 6 hrs by luminescence based immune checkpoint blockade assay
[3] = molecular target: T2, Programmed cell death protein 1/Programmed cell death 1 ligand 1 (Homo sapiens) (UniProt Q15116+Q9NZQ7); experiment: as §1; settings: dose 0.1-100 µM
[4] = test system: PBMC; experiment: Induction of T cell activation in human PBMC cells co-cultured with CHO/TCRAct/PD-L1 cells assessed as increase in the percentage of CD25+/CD4+ cells at 10 uM incubated for 48 hrs by flow cytometry analysis; format: functional, cell-based
[5] = test system: PBMC; experiment: Induction of T cell activation in human PBMC cells co-cultured with CHO/TCRAct/PD-L1 cells assessed as increase in the percentage of CD69+/CD8+ cells at 10 uM incubated for 48 hrs by flow cytometry analysis; format: functional, cell-based
[6] = test system: PBMC; experiment: Induction of T cell activation in human PBMC cells co-cultured with CHO/TCRAct/PD-L1 cells assessed as increase in HLA-DR positive cells at 10 uM incubated for 48 hrs by flow cytometry analysis; format: functional, cell-based
[7] = test system: PBMC; experiment: Induction of T cell activation in human PBMC cells co-cultured with CHO/TCRAct/PD-L1 cells assessed as increase in PD-1 positive cells at 10 uM incubated for 48 hrs by flow cytometry analysis; format: functional, cell-based
[8] = molecular target: T2, Programmed cell death protein 1/Programmed cell death 1 ligand 1 (Homo sapiens); experiment: Inhibition of human PD-1/PD-L1 interaction assessed as residual activity at 500 nM for 1 hr by HTRF assay relative to control; format: protein-complex assay

T1 sequence (Q15116 whole entry): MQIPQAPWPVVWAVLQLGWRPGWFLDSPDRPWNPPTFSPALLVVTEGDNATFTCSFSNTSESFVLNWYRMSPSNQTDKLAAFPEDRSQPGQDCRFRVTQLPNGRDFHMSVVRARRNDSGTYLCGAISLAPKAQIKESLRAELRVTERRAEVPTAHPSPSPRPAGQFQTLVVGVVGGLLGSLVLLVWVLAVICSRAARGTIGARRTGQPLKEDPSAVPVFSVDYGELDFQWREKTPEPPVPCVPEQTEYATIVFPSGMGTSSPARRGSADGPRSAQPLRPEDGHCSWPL
T1 sequence (Q9NZQ7 whole entry): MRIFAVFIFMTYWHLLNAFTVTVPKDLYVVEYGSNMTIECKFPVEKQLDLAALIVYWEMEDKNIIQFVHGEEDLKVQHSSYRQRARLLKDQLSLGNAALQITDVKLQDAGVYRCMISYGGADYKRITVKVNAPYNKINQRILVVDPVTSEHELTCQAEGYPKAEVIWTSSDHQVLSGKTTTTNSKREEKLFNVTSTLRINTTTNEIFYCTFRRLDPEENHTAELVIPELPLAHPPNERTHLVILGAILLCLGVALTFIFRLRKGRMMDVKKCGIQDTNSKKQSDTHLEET

With `Cc1c(NC(=O)c2ccc(CNC(CO)(CO)CO)cn2)cccc1-c1ccc2c(c1)OCCN2C` the IC50 [1] was 0.077 µM, the EC50 [2] was 25.8 µM and the inhibition [3] was “Dose-Dependent Effect”. The Activity [4] was “Active”, the Activity [5] was “Active” and the Activity [6] was “Active”. The Activity [7] was “Active”.

Compound `Cc1c(COc2ccc(CNC(CO)(CO)CO)cc2)cccc1-c1ccc2c(c1)OCCN2C(=O)c1ccc(CNC(CO)(CO)CO)cc1` has an Activity [8] of 83%.

Compound `Cc1c(COc2ccc(CNC(CO)CO)cc2)cccc1-c1ccc2c(c1)OCCN2C(=O)c1ccc(CNC(CO)CO)cc1` has an Activity [8] of 84%.

With `Cc1c(NC(=O)c2ccc(CNC(CO)(CO)CO)cn2)cccc1-c1ccc2c(c1)OCCN2C(=O)c1ccc(CNC(CO)(CO)CO)cc1` the Activity [8] was 92%.

For `Cc1c(NC(=O)c2ccc(CNC(CO)CO)cn2)cccc1-c1ccc2c(c1)OCCN2C`, the IC50 [1] was 0.109 µM and the inhibition [3] was “inactive”.

Work on `O=C(O)[C@@H]1CCCCN1Cc1ccc(OCc2cccc(-c3ccccc3)c2Br)c(Br)c1` yielded an EC50 [2] of 6.6 µM.

`Cc1c(NC(=O)c2ccc(CNC(CO)CO)cn2)cccc1-c1ccc2c(c1)OCCN2C(=O)c1ccc(CNC(CO)CO)cc1` showed an Activity [8] of 70%.
